# Data reported in patent US20170128435A1, “TREATMENT OF MULTIPLE SCLEROSIS WITH LAQUINIMOD” (Teva Pharmaceutical Industries, Ltd., priority 2009, published 2017).
# Where two headings read alike, the source gives them in different places.
# Columns and labels:
# [1] = tested on: subjects with Relapsing-Remitting Multiple Sclerosis (RRMS); test: Phase III clinical trial BRAVO: laquinimod over placebo, with Interferon β-1a (Avonex®) reference arm; type: in vivo, human; settings: daily oral 0.6 mg, RRMS patients
# Protocol: A multinational, multicenter, randomized, parallel-group, clinical trial is performed in subjects with RRMS (“BRAVO”). BRAVO is conducted to assess the efficacy, safety and tolerability of laquinimod over placebo in a double-blinded design and of a reference arm of Interferon β-1a (Avonex®) in a rater-blinded design. A multinational, Multicenter, Randomized, Parallel-Group study performed in subjects with Relapsing-Remitting Multiple Sclerosis (RRMS) to assess the efficacy, safety and tolerability of laquinimod over placebo in a double-blind design and of a reference arm of Interferon β-1a (Avonex®)in a rater-blinded design. Treatment phase: 24 months of once-daily oral administration of laquinimod 0.6 mg, matching oral placebo or once-weekly intramuscular administration of Interferon β-1a (Avonex®) 30 mcg. Eligible subjects are randomized in a 1:1:1 ratio (oral laquinimod: oral placebo: Avonex®) and assigned to one of the following three treatment arms: • 1. Laquinimod 0.6 mg per os once daily (400 subjects). The 0.6 mg laquinimod is administered as laquinimod capsules which contains 0.6 mg of Laquinimod Acid per capsule with meglumine. • 2. Matching placebo (for laquinimod) per os once daily (400 subjects). • 3. Interferon β-1a (Avonex®) 30 mcg intramuscular injection once weekly (400 subjects). Subjects on oral treatment are managed in a double-blind manner. Subjects assigned to injectable treatment with Avonex® and their Treating Neurologist/Physician are unblinded to the treatment assignment, but assessed neurologically by an Examining Neurologist/Physician in a blinded manner (potential IM injection sites are covered). During the study, the following assessments are performed (regardless of the treatment assignment) at the specified time points: • 1. Vital signs are measured at each study visit. • 2. A physical examination is performed at months −1 (screening), 0 (baseline) 1, 3, 6, 12, 18 and 24 (termination/early discontinuation). • 3. The following safety clinical laboratory tests are performed: • a. Complete blood count (CBC) with differential—at all scheduled visits. A reticulocyte count is added to the CBC at months 0 (baseline) and 24 (termination/early discontinuation) as well as in occasions of significant decrease in hemoglobin. • b. Serum chemistry (including electrolytes, liver enzymes, direct and total bilirubin, CPK and pancreatic amylase), and urinalysis—at all scheduled visits. • c. Serum TSH, T3 and Free T4 are measured at months 0 (baseline), 6, 12, 18 and 24 (termination/early discontinuation). • d. […] Markers of inflammation (serum conventional C-reactive protein and fibrinogen) are measured at all scheduled visits. • 5. […]
# [2] = tested on: Relapsing-Remitting Multiple Sclerosis; settings: 0.3 mg/day oral dose (Comi, 2007); cited from earlier work
# [3] = tested on: relapsing MS; settings: cited from earlier work
# [4] = tested on: subjects with relapsing remitting multiple sclerosis (RRMS); test: Phase III clinical trial ALLEGRO: daily oral laquinimod 0.6 mg vs placebo; type: in vivo, human; settings: daily oral 0.6 mg, RRMS patients
# Protocol: A multinational, multicenter (approximately 175 centers), randomized, double-blinded, parallel-group, placebo-controlled clinical trial (“ALLEGRO”) is conducted to evaluate the safety, tolerability and efficacy of daily oral administration of laquinimod 0.6 mg in subjects with relapsing remitting multiple sclerosis (RRMS). A multinational, multicenter, randomized, double-blind, parallel-group, placebo-controlled study, to evaluate the safety, tolerability and efficacy of daily oral administration of laquinimod 0.6 mg in subjects with relapsing remitting multiple sclerosis (RRMS). Double blind treatment phase: 24 months of once-daily oral administration of daily dose of 0.6 mg laquinimod or matching placebo Eligible subjects are equally randomized into one of the following treatment arms: • 1. Laquinimod capsules 0.6 mg. The 0.6 mg laquinimod is administered as laquinimod capsules which contains 0.6 mg of Laquinimod Acid per capsule with meglumine. • 2. Matching placebo capsules. Subjects are evaluated at study sites for 12 scheduled visits of the double blind phase at months: −1 (screening), 0 (baseline), 1, 2, 3, 6, 9, 12, 15, 18, 21 and 24 (termination/early discontinuation). In case of the 6 months extended study, subjects are evaluated at study sites at months 27 and 30 (termination/early discontinuation of extended study), in this case month 24 is a regular scheduled visit. The following assessments are performed at specified time points: • 1. Vital signs are measured at each study visit. • 2. A physical examination is performed at months −1 (screening), 0 (baseline) 1, 3, 6, 12, 18 and 24 (termination/early discontinuation core study). In case of the 6 months extended study, additional examination is performed at month 30 (termination/early discontinuation of extended study). • 3. The following safety clinical laboratory tests are performed: • a. Complete blood count (CBC) with differential—at all scheduled visits. A reticulocyte count is added to the CBC at months 0 (baseline) and 24/30 (termination/early discontinuation). • b. Serum chemistry (including electrolytes, liver enzymes, direct and total bilirubin and pancreatic amylase and CPK), and urinalysis—at all scheduled visits. • c. A rapid urine β-hCG test is performed in women of child-bearing potential at baseline (month 0) and at each scheduled study visit thereafter (at site). • d. β-hCG in women of child-bearing potential is performed at all scheduled visits. • e. Starting after visit Month 3 a rapid urine β-hCG test is performed in women of child-bearing potential every 28 (±2) days. The subject is contacted by telephone within 72 hours after the test is scheduled to be performed and asked specific questions regarding the test. In case of suspected pregnancy (positive urine β-hCG test result), the caller makes sure that the study drug has been discontinued and the subject is instructed to arrive at the site as soon as possible with all study drugs. • 4. Markers of inflammation (serum conventional C-reactive protein and fibrinogen)—at screening, baseline and all scheduled visits thereafter. • 5. During the first 3 months periodical phone calls are placed by the site personnel every two weeks. […] ECG is performed at months −1 (screening; additional recording, up to 30 minutes apart is performed if QTc is […] 450 msec), (baseline; three recordings, 15 minutes apart), 1, 2, 3, 6, 12, 18 and 24 (termination/early discontinuation). In case of the 6 months extended study, ECG is performed at month 30 (termination/early discontinuation of the extended study). • 7. Chest X-ray is performed at months −1 (screening), (if not performed within 7 months prior to the screening visit). • 8. Adverse Events (AEs) are monitored throughout the study. • 9. Concomitant medications are monitored throughout the study. • 10. […]
# [5] = (Polman, 2005; Sandberg-Wollheim, 2005); cited from earlier work
SMILES,"accumulation of physical disability, as measured by the MSFC score at the end of the treatment period [1]","accumulation of physical disability, as measured by time to confirmed progression of EDSS [1]","brain atrophy, as measured by percent brain volume change from baseline to the end of the treatment period [1]",number of confirmed relapses (directly related to the relapse rate) ([1]; treatment period),MRI and clinical effect as compared to placebo [2],"development of active MRI lesions ([3]; 0.3 mg/day oral dose, relapsing MS (RRMS and SPMS) (Polman, 2005))","development of active MRI lesions ([3]; relapsing MS, dose not stated (Polman, 2005))",MRI-monitored disease activity: cumulative number of enhancing lesions on T1-weighted images [4],MRI-monitored disease activity: cumulative number of new T2 lesions [4],MRI-monitored disease activity: cumulative number of new hypointense lesions on T1-scans [4],"accumulation of physical disability, as measured by the time to confirmed progression of EDSS [4]",relapse rate ([4]; double blind study period),number of confirmed relapses during the double blind study period ([4]; vs placebo),oral bioavailability [5]
CCN(C(=O)c1c(O)c2c(Cl)cccc2n(C)c1=O)c1ccccc1 [laquinimod],reduces,reduces,reduces,reduces,neither MRI nor clinical effect,reduce,reduce,reduces,reduces,reduces,reduces,reduces,reduces,–
CCN(C(=O)c1c(O)c2c(Cl)cccc2n(C)c1=O)c1ccccc1 [Laquinimod sodium],–,–,–,–,–,–,–,–,–,–,–,–,–,high
